Data from PubChem BioAssay AID2060615 (Molecular Pharmacology Branch, DTP, NCI, 2025).

System: 496974-208-R-J2-PDC complex spheroids, growth % test/control
Experiment: Anticancer human tumor 496974-208-R-J2-PDC patient-derived pancreatic carcinoma cell line growth inhibition [CLK]
Conditions: for IC50: curve of first compound; for viability, T/C: stronger effect = lower value
In short: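 Multi-cell-type spheroids combined patient-derived tumor cells with HUVEC endothelial cells and human mesenchymal stem cells. Paired agents were dosed in half-log steps down from about clinical Cmax, or from 10 microM where Cmax was unknown.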

[1] = second compound 0.0316 µM, first compound 0.0316 µM
[2] = second compound 0.0316 µM, first compound 0.1 µM
[3] = second compound 0.0316 µM, first compound 0.316 µM
[4] = second compound 0.0316 µM, first compound 1 µM
[5] = second compound 0.1 µM, first compound 0.0316 µM
[6] = second compound 0.1 µM, first compound 0.1 µM
[7] = second compound 0.1 µM, first compound 0.316 µM
[8] = second compound 0.1 µM, first compound 1 µM
[9] = second compound 0.316 µM, first compound 0.0316 µM
[10] = second compound 0.316 µM, first compound 0.1 µM
[11] = second compound 0.316 µM, first compound 0.316 µM
[12] = second compound 0.316 µM, first compound 1 µM
[13] = second compound 1 µM, first compound 0.0316 µM
[14] = second compound 1 µM, first compound 0.1 µM
[15] = second compound 1 µM, first compound 0.316 µM
[16] = second compound 1 µM, first compound 1 µM
[17] = second compound 3.16 µM, first compound 0.0316 µM
[18] = second compound 3.16 µM, first compound 0.1 µM
[19] = second compound 3.16 µM, first compound 0.316 µM
[20] = second compound 3.16 µM, first compound 1 µM
[21] = second compound 10 µM, first compound 0.0316 µM
[22] = second compound 10 µM, first compound 0.1 µM
[23] = second compound 10 µM, first compound 0.316 µM
[24] = second compound 10 µM, first compound 1 µM
[25] = second compound 0.0316 µM, first compound 3.16 µM
[26] = second compound 0.0316 µM, first compound 10 µM
[27] = second compound 0.1 µM, first compound 3.16 µM
[28] = second compound 0.1 µM, first compound 10 µM
[29] = second compound 0.316 µM, first compound 3.16 µM
[30] = second compound 0.316 µM, first compound 10 µM
[31] = second compound 1 µM, first compound 3.16 µM
[32] = second compound 1 µM, first compound 10 µM
[33] = second compound 3.16 µM, first compound 3.16 µM
[34] = second compound 3.16 µM, first compound 10 µM
[35] = second compound 10 µM, first compound 3.16 µM
[36] = second compound 10 µM, first compound 10 µM
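Further: spheroids exposed to the drugs for 7 days before readout.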
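Wherever viability, T/C is given: 100% = DMSO vehicle control wells.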

CCc1c2c(nc3ccc(O)cc13)-c1cc3c(c(=O)n1C2)COC(=O)[C@]3(O)CC + CNC(=O)c1ccc(Nc2nc(OC3CCCC3)c3c(-c4ccc5nc(C)oc5c4)c[nH]c3n2)c(OC)c1
IC50 (second compound 0.0316 µM): 15.2 nM | IC50 (second compound 0.1 µM): 12.7 nM | IC50 (second compound 0.316 µM): 12.6 nM | IC50 (second compound 1 µM): 11.2 nM | IC50 (second compound 3.16 µM): 4.84 nM | IC50 (second compound 10 µM): < 3.16 nM | viability, T/C (second compound 0.0316 µM, first compound 0.00316 µM): 70.7% | viability, T/C (second compound 0.0316 µM, first compound 0.01 µM): 56.9% | viability, T/C [1]: 38.6% | viability, T/C [2]: 19% | viability, T/C [3]: 12.1% | viability, T/C [4]: 3.81% | viability, T/C (second compound 0.1 µM, first compound 0.00316 µM): 67.8% | viability, T/C (second compound 0.1 µM, first compound 0.01 µM): 54% | viability, T/C [5]: 36% | viability, T/C [6]: 21.2% | viability, T/C [7]: 9.65% | viability, T/C [8]: 2.79% | viability, T/C (second compound 0.316 µM, first compound 0.00316 µM): 69.8% | viability, T/C (second compound 0.316 µM, first compound 0.01 µM): 53.5% | viability, T/C [9]: 35% | viability, T/C [10]: 19.2% | viability, T/C [11]: 7.42% | viability, T/C [12]: 3.21% | viability, T/C (second compound 1 µM, first compound 0.00316 µM): 60.5% | viability, T/C (second compound 1 µM, first compound 0.01 µM): 52.6% | viability, T/C [13]: 31.2% | viability, T/C [14]: 13.5% | viability, T/C [15]: 5.29% | viability, T/C [16]: 2.81% | viability, T/C (second compound 3.16 µM, first compound 0.00316 µM): 54.4% | viability, T/C (second compound 3.16 µM, first compound 0.01 µM): 42.6% | viability, T/C [17]: 25.6% | viability, T/C [18]: 12.9% | viability, T/C [19]: 4.63% | viability, T/C [20]: 2.2% | viability, T/C (second compound 10 µM, first compound 0.00316 µM): 50% | viability, T/C (second compound 10 µM, first compound 0.01 µM): 38.9% | viability, T/C [21]: 24.4% | viability, T/C [22]: 11.9% | viability, T/C [23]: 3.68% | viability, T/C [24]: 6.41%

COc1cccc2c1C(=O)c1c(O)c3c(c(O)c1C2=O)CC(O)(C(=O)CO)CC3OC1CC(N)C(O)C(C)O1 (stereo not drawn) + CNC(=O)c1ccc(Nc2nc(OC3CCCC3)c3c(-c4ccc5nc(C)oc5c4)c[nH]c3n2)c(OC)c1
IC50 (second compound 0.0316 µM): 185 nM | IC50 (second compound 0.1 µM): 177 nM | IC50 (second compound 0.316 µM): 191 nM | IC50 (second compound 1 µM): 115 nM | IC50 (second compound 3.16 µM): 103 nM | IC50 (second compound 10 µM): 53.6 nM | viability, T/C [1]: 70.4% | viability, T/C [2]: 62.2% | viability, T/C [3]: 38.3% | viability, T/C [4]: 3.78% | viability, T/C [25]: 0.62% | viability, T/C [26]: 0.49% | viability, T/C [5]: 67.5% | viability, T/C [6]: 66.1% | viability, T/C [7]: 33.8% | viability, T/C [8]: 3.28% | viability, T/C [27]: 0.77% | viability, T/C [28]: 2.66% | viability, T/C [9]: 68% | viability, T/C [10]: 68.3% | viability, T/C [11]: 36.2% | viability, T/C [12]: 3.12% | viability, T/C [29]: 0.68% | viability, T/C [30]: 0.3% | viability, T/C [13]: 68% | viability, T/C [14]: 52.9% | viability, T/C [15]: 22.5% | viability, T/C [16]: 1.15% | viability, T/C [31]: 2.86% | viability, T/C [32]: 3.97% | viability, T/C [17]: 57.9% | viability, T/C [18]: 50.7% | viability, T/C [19]: 18.4% | viability, T/C [20]: 1.62% | viability, T/C [33]: 0.55% | viability, T/C [34]: 0.42% | viability, T/C [21]: 57.8% | viability, T/C [22]: 40.5% | viability, T/C [23]: 16.8% | viability, T/C [24]: 1.34% | viability, T/C [35]: 0.84% | viability, T/C [36]: 0.85%

Nc1ccn(C2OC(CO)C(O)C2(F)F)c(=O)n1 (stereo not drawn) + CNC(=O)c1ccc(Nc2nc(OC3CCCC3)c3c(-c4ccc5nc(C)oc5c4)c[nH]c3n2)c(OC)c1
IC50 (second compound 0.0316 µM): > 10000 nM | IC50 (second compound 0.1 µM): > 10000 nM | IC50 (second compound 0.316 µM): > 10000 nM | IC50 (second compound 1 µM): 2760 nM | IC50 (second compound 3.16 µM): 279 nM | IC50 (second compound 10 µM): 60.6 nM | viability, T/C [1]: 94.5% | viability, T/C [2]: 80% | viability, T/C [3]: 67% | viability, T/C [4]: 65.4% | viability, T/C [25]: 68.5% | viability, T/C [26]: 58.5% | viability, T/C [5]: 75.3% | viability, T/C [6]: 80.7% | viability, T/C [7]: 64.6% | viability, T/C [8]: 62.9% | viability, T/C [27]: 60.7% | viability, T/C [28]: 54% | viability, T/C [9]: 63.3% | viability, T/C [10]: 74.2% | viability, T/C [11]: 69.9% | viability, T/C [12]: 54.8% | viability, T/C [29]: 59.6% | viability, T/C [30]: 65.2% | viability, T/C [13]: 66.4% | viability, T/C [14]: 62.5% | viability, T/C [15]: 66.6% | viability, T/C [16]: 53.5% | viability, T/C [31]: 44.4% | viability, T/C [32]: 54.7% | viability, T/C [17]: 63.1% | viability, T/C [18]: 59.8% | viability, T/C [19]: 49.2% | viability, T/C [20]: 41% | viability, T/C [33]: 42.1% | viability, T/C [34]: 43.7% | viability, T/C [21]: 52.8% | viability, T/C [22]: 49% | viability, T/C [23]: 44.4% | viability, T/C [24]: 39.6% | viability, T/C [35]: 40.6% | viability, T/C [36]: 43.1%

O=c1[nH]cc(F)c(=O)[nH]1 + CNC(=O)c1ccc(Nc2nc(OC3CCCC3)c3c(-c4ccc5nc(C)oc5c4)c[nH]c3n2)c(OC)c1
IC50 (second compound 0.0316 µM): > 10000 nM | IC50 (second compound 0.1 µM): > 10000 nM | IC50 (second compound 0.316 µM): > 10000 nM | IC50 (second compound 1 µM): 6380 nM | IC50 (second compound 3.16 µM): > 10000 nM | IC50 (second compound 10 µM): 1210 nM | viability, T/C [1]: 102% | viability, T/C [2]: 88.6% | viability, T/C [3]: 92.7% | viability, T/C [4]: 85.3% | viability, T/C [25]: 72.2% | viability, T/C [26]: 61.8% | viability, T/C [5]: 74.8% | viability, T/C [6]: 83.1% | viability, T/C [7]: 76.2% | viability, T/C [8]: 81.8% | viability, T/C [27]: 70.7% | viability, T/C [28]: 58.7% | viability, T/C [9]: 78.5% | viability, T/C [10]: 76.4% | viability, T/C [11]: 68.2% | viability, T/C [12]: 70.4% | viability, T/C [29]: 67.1% | viability, T/C [30]: 54.6% | viability, T/C [13]: 73.7% | viability, T/C [14]: 67.3% | viability, T/C [15]: 71.5% | viability, T/C [16]: 69% | viability, T/C [31]: 56.9% | viability, T/C [32]: 45.6% | viability, T/C [17]: 63.5% | viability, T/C [18]: 58.6% | viability, T/C [19]: 64% | viability, T/C [20]: 54% | viability, T/C [33]: 55.2% | viability, T/C [34]: 48.5% | viability, T/C [21]: 51.8% | viability, T/C [22]: 58.5% | viability, T/C [23]: 54.2% | viability, T/C [24]: 51.8% | viability, T/C [35]: 41.3% | viability, T/C [36]: 39%
